Like-named read-outs stand apart in the source and are kept apart here.
Tests used:
[1] = Dose ranging study of bethanechol cream in healthy volunteers, anal manometry; type: in vivo, human; conditions: higher concentrations produced no additional effect
Text: Bethanechol cream at concentrations of 0.05%, 0.1%, 0.5% and 1% w/w bethanechol were made up in accordance with Example 1. The compositions were studied following initial experimentation in an open way to determine a clinically effective dose range. […] Maximal effect was produced by application of 0.1% bethanechol and higher concentrations of the cream produced no additional effect. At 0.1% w/w bethanechol, the mean resting pressure was reduced from about 110 cm to about 85 cm H2O (about 25% decrease). A typical ‘one inch’ application of this cream from the tube is equivalent to 400 mcg of bethanechol.

[2] = Study of Example 4 repeated using oral diltiazem
[3] = higher concentrations did not produce an additional effect
[4] = topical use; cited from earlier work
[5] = after 1 hour, patients with anal fissures; cited from earlier work

For `CC(C[N+](C)(C)C)OC(N)=O` (stereo not shown) [bethanechol], the “concentration producing the maximal effect on resting anal pressure” value [1] was 0.1 % w/w.
For `COc1ccc([C@@H]2Sc3ccccc3N(CCN(C)C)C(=O)[C@@H]2OC(C)=O)cc1` [diltiazem], the “effect on mean anal resting pressure” value ([2]; 60 mg oral once a day) was “no notable effect”, the “patients who noticed postural dizziness” value ([2]; 60 mg oral twice a day) was “two” and the “mean anal resting pressure reduced by” value ([2]; 60 mg oral twice a day, P=0.008) was 17%. For the same compound, the “concentration producing the maximal effect on resting anal pressure” value [3] was “about 2 % w/w”.
In the case of `O=[N+]([O-])OCC(CO[N+](=O)[O-])O[N+](=O)[O-]` [glyceryl trinitrate], the “effect on internal anal resting pressure” value [4] is given as “reduces the internal anal resting pressure”.
In the case of `O=C(NC1CCN(CCc2c[nH]c3ccccc23)CC1)c1ccccc1` [indoramin], the “reduction of maximum resting pressures in the anal canal” value [5] is given as 35.8%.

Reference: patent US8048875B1, “Topical pharmaceutical composition comprising a cholinergic agent or a calcium channel blocker” (S.L.A. Pharma AG, priority 1997, dated 2011)
